Assay results as given in US20220025003A1, “REAGENTS AND METHODS FOR CONTROLLING PROTEIN FUNCTION AND INTERACTION” (University of Washington, priority 2018, published 2022).

Key:
NS3a active = molecular target: T1, NS3a active (Hepatitis C virus genotype 1b, UniProt Q9WMX2, A1176V/E1056D/L1047A/L1120M/Q1112P/R1052K/V1062L/V1196I); assay: Fluorescence polarization competition assay with FAM-ANR; format: binding
T1 construct: Avi-His6-NS3a; made in house; host or cells: E. coli BL21 (DE3)
Procedure: (§1) Fluorescence polarization competition assays were used to determine the ability of danoprevir to displace ANR. A 75 nM solution of NS3a in FP-Buffer was incubated with 50 nM FAM-ANR in a black 96-well plate for 1 hour in the dark. 3-fold serial dilutions of danoprevir were prepared in FP-Buffer such that, when added to the NS3a/FAM-ANR solution, the highest concentration of danoprevir tested was 10 μM. Plates were incubated for 1 hour in the dark. Fluorescence polarization was measured at 22° C. on a Perkin Elmer EnVision™ fluorometer (excitation, 495 nm; emission 520 nm). Each measurement was carried out in triplicate. Anisotropy values were obtained and a nonlinear regression model was used to fit curves with GraphPad Prism.

NS3a inactive (S139A) = molecular target: T2, NS3a inactive (S139A) (Hepatitis C virus genotype 1b, UniProt Q9WMX2, A1176V/E1056D/L1047A/L1120M/Q1112P/R1052K/S1165A/V1062L/V1196I); assay: as above; format: binding; settings: 75 nM NS3a, read-out: apparent IC50
T2 construct: Avi-His6-NS3a; the text calls the FP protein non-biotinylated) (N); made in house; host or cells: E. coli BL21 (DE3)
Procedure: as §1

NS3a inactive = assay: ANR-GST pulldown with immobilized biotinylated NS3a; format: binding, hepatitis C virus; settings: 10 μM danoprevir, 5 μM ANR-GST
Procedure: Pierce high-capacity streptavidin beads (Thermo-Fisher #P120359) were prepared by washing three times with Buffer PDA (TBS+0.05% tween+0.5 mg/mL BSA). For each condition and each replicate, beads were washed and incubated separately. The wash was performed by adding 200 μL Buffer PDA to 30 μL of a 50/50 bead slurry, inverting to mix, and spinning down (2500×g for 2 min). The supernatant was removed by pipetting, and the wash was repeated two more times to end with a 50/50 slurry of beads in wash buffer.
Purified biotinylated NS3a was prepared at a 50× final concentration and 10 μL were added to a 490 μL 50/50 slurry of streptavidin beads and Buffer PD for final NS3a concentration of 125 nM. Beads were incubated and rotated at 4° C. After one hour, beads were harvested and washed three times as described previously, ending in a 50/50 bead/buffer slurry. ANR was added to all samples at a final concentration of 5 μM. For the danoprevir treated samples, danoprevir was added to a final concentration of 10 μM. Buffer PD was added to a final volume of 500 μL, and the beads were incubated and rotated at 4° C. After 1 hour, beads were pelleted and washed three times in Buffer FDB (TBS buffer+0.05% Tween) with 5 minute incubations between washes on a rotator at 4° C. To obtain final bound protein, beads were pelleted and supernatant was aspirated, resulting in a final volume of beads of 20 μL. […]

[1] = tested on: RAS/ERK pathway in HEK293 cells; assay: Activation of NS3a-CDAR, phospho-ERK blot; format: cell-based; settings: 10 μM drug, 60 min
Procedure: 18-24 hours prior to transfection, 3.0×10^5 HEK293 cells were plated onto poly-D-lysine 12 well plates. Immediately prior to transfection, media was aspirated and cells were washed with 1 mL of pre-warmed (37° C.) PBS, then serum starved with FBS-free DMEM. Following serum starvation, cells were transfected with 1 μg of FLAG-tagged NS3a-CDAR, BH3-NS3a-CDAR, or an empty pCDNA5 vector. Transfected cells were allowed to serum stave for 18-20 hours prior to drug treatment. For drug treatment, serum-free media was prepared with DMSO or 10 μM of a drug. Media was aspirated, washed once with pre-warmed DPBS, then treated with drug/DMSO media for the requisite amount of time. Media was subsequently aspirated and the cells were washed twice with 1 mL chilled PBS, then lysed with 75 μL Mod. RIPA buffer (50 mM Tris, pH 7.8, 1% IGEPAL CA-630, 150 mM NaCl, 1 mM EDTA, 2 mM Na3VO4, 30 mM NaF, Pierce Protease Inhibitor Tablet). Cleared lysates were subjected to SDS-PAGE and transferred to nitrocellulose. Blocking and antibody incubations were done in TBS with 0.1% Tween-20 (v/v) and blocking buffer (Odyssey). Primary antibodies were all purchased from Cell Signaling Technologies and were diluted as follows: Total ERK (1:2500, #9107), phosphorylated ERK (1:2500, #4370), FLAG (1:2,500, #D6W5B). Blots were washed three times in TBS with 0.1% Tween-20. Antibody binding was detected by using near-infrared-dye-conjugated secondary antibodies and visualized on the LI-COR Odyssey scanner. Blots were quantified via densitometry with Image Studio (LI-COR).

[2] = tested on: mCherry reporter gene in HEK293T cells; assay: Chemically-disruptable Gal4(DBD)-NS3a(H1)/ANR-VPR transcriptional regulation; format: cell-based; settings: 1 μM drug, 24 hours
Procedure: Cells were subsequently transfected with 1 μg of the Gal4 reporter plasmid (UAS-mCherry™/CMV-Gal4-NS3a(H1)-P2A-ANR-Myc-BFP-VPR-NLS) in OptiMem™. […] Supernatant was subsequently removed and the cells were re-suspended in 400 μL DPBS and analyzed on a FACS LSRII (BD Biosciences).
For Gal4/NS3a-CDP mediated transcriptional activation FACS experiments, 10,000 single cell events were collected for each of the samples run. […] The gathered FACS data were analyzed using FlowJo™ (v.10.1).

CXCR4 [3] = assay: dCas9 transcription control, immunofluorescence FACS; format: cell-based, human; settings: CXCR4 and CD95
CXCR4 [4] = assay: Danoprevir/grazoprevir titrations to linearize CXCR4 or CD95 expression; format: cell-based, human; settings: increasing proportion of grazoprevir added to danoprevir titration
Description: Data were fit to four-parameter log dose-response curves (fitting EC50, upper and lower baselines, and Hill coefficient) in Graphpad Prism 5.

GFP reporter = assay: Combined CXCR4 and GFP induction with scRNAs, NS3a-VPR; format: cell-based; settings: read-out: EC50 (GFP expression)
GFP, CD95 and CXCR4 = assay: 3-gene experiment (GFP, CD95, CXCR4) by RT-qPCR; format: cell-based; settings: 10 μM danoprevir, 1 μM grazoprevir, 1 μM asunaprevir
Description: Cells were harvested on day 5 as described above for other samples to be analyzed to qPCR.

NS3a = settings: read-out: NS3a:drug Ki; published enzyme inhibition studies; cited from earlier work

CC(C)(C)OC(=O)N[C@H]1CCCCC/C=C\[C@@H]2C[C@@]2(C(=O)NS(=O)(=O)C2CC2)NC(=O)[C@@H]2C[C@@H](OC(=O)N3Cc4cccc(F)c4C3)CN2C1=O [danoprevir]
displacement of ANR from NS3a (NS3a active): potently and dose-dependently displace ANR from NS3a | IC50 (NS3a active; NS3a active, 75 nM NS3a, FAM-ANR, read-out: apparent IC50): < 75 nM | IC50 (NS3a inactive (S139A)): < 75 nM | pull down of ANR-GST by immobilized NS3a inactive (NS3a inactive): inhibits the ability of immobilized NS3a inactive to pull down ANR-GST | phospho-ERK levels in cells expressing NS3a-CDAR [1]: robust increase in phospho-ERK levels | mCherry expression after drug treatment [2]: decreased mCherry™ expression to background levels | effect on gene expression in the absence of the guide RNA (CXCR4 [3]): no effect | linear output range of CXCR4 expression (CXCR4 [4]): 3 orders of magnitude | EC50 (GFP reporter): 0.79 nM | transcriptional output state in 3-gene system (GFP, CD95 and CXCR4): CD95 expression under control of DNCR2 | Ki (NS3a): 1 nM
